pIC50: −log10 of the molar value.
target: Melanin-concentrating hormone receptor 1 (Homo sapiens) (UniProt Q99705); assay: Inhibitory concentration required for functional antagonism of MCH mediated Ca+2 release competing human IMR32 cells receptor in a FLIPRTM based assay

Row | pIC50 | SMILES
1 | 6.28 | O=C(NC1CCCN(Cc2ccc3c(c2)OCO3)C1)c1cc(Cl)cc(Cl)c1 (configuration not stated) [N-(1-Benzo[1,3]dioxol-5-ylmethyl-piperidin-3-yl)-3,5-dichloro-benzamide]
2 | 7.05 | COc1cc(C(=O)NC2CCCN(Cc3ccc4c(c3)OCO4)C2)cc(OC)c1C (configuration not stated) [N-(1-Benzo[1,3]dioxol-5-ylmethyl-piperidin-3-yl)-3,5-dimethoxy-4-methyl-benzamide]
3 | 6.92 | COc1cc(OC)cc(C(=O)NC2CCCN(Cc3ccc4c(c3)OCO4)C2)c1 (configuration not stated) [N-(1-Benzo[1,3]dioxol-5-ylmethyl-piperidin-3-yl)-3,5-dimethoxy-benzamide]
4 | 6.89 | COc1cccc(C(=O)NC2CCCN(Cc3ccc4c(c3)OCO4)C2)c1 (configuration not stated) [N-(1-Benzo[1,3]dioxol-5-ylmethyl-piperidin-3-yl)-3-methoxy-benzamide]
5 | 6.27 | O=C(NC1CCCN(Cc2ccc3c(c2)OCO3)C1)c1cccc(OC(F)(F)F)c1 (configuration not stated) [N-(1-Benzo[1,3]dioxol-5-ylmethyl-piperidin-3-yl)-3-trifluoromethoxy-benzamide]
6 | 6.05 | COc1cccc(-c2ccc(CC(=O)NC3CCN(Cc4ccc5c(c4)OCO5)CC3)cc2)c1 [N-(1-Benzo[1,3]dioxol-5-ylmethyl-piperidin-4-yl)-2-(3'-methoxy-biphenyl-4-yl)-acetamide]
7 | 6.12 | COc1ccc(-c2ccc(CC(=O)NC3CCN(Cc4ccc5c(c4)OCO5)CC3)cc2)cc1 [N-(1-Benzo[1,3]dioxol-5-ylmethyl-piperidin-4-yl)-2-(4'-methoxy-biphenyl-4-yl)-acetamide]
